The values below come from patent US12180215B2, “Substituted pyrrolo[3,4-d]imidazoles as JAK inhibitors” (HENAN MEDINNO PHARMACEUTICAL TECHNOLOGY CO., LTD., priority 2019, dated 2024).

Structures are written as SMILES.

For one assay, the target named is JAK1 (Homo sapiens, UniProt P23458). In words: JAK1 kinase ADP-Glo assay (Example 60).
The next assay has as its target JAK2 (Homo sapiens, UniProt O60674). In words: JAK2 kinase ADP-Glo assay (Example 60).
The target in another assay is JAK3 (Homo sapiens, UniProt P52333). The assay is described as follows: JAK3 kinase ADP-Glo assay (Example 60).
Sequence of JAK3 (P52333 795-1124 limits assumed): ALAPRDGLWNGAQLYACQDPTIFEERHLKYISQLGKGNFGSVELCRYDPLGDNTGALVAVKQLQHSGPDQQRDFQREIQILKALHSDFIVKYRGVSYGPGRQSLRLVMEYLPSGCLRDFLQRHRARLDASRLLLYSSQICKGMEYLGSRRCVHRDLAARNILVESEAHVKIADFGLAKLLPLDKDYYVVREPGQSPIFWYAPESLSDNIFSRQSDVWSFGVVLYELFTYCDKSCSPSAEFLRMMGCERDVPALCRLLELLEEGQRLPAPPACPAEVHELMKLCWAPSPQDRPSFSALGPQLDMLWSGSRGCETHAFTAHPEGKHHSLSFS
For a further assay, the target named is T1, TYK2 (Homo sapiens, UniProt P29597).
T1 sequence (P29597 871-1187 limits assumed): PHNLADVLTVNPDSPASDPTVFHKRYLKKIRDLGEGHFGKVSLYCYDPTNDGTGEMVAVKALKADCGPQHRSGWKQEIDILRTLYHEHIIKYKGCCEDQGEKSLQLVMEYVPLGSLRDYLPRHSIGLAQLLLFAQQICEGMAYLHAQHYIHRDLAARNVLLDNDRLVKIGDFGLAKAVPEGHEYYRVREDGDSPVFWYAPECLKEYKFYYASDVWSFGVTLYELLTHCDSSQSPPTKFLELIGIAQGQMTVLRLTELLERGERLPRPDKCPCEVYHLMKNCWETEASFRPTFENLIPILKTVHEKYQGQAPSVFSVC
The assay is described as follows: TYK2 kinase ADP-Glo assay (Example 60).

Sequence of JAK2 (O60674 826-1132 limits assumed): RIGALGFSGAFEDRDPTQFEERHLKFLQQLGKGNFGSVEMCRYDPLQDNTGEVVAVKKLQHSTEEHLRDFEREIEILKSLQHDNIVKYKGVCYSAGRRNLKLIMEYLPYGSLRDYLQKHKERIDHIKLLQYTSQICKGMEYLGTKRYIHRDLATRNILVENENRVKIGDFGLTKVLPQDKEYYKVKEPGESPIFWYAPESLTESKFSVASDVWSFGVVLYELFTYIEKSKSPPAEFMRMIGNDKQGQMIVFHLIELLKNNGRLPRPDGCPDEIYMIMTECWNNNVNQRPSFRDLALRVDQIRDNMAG
Sequence of JAK1 (P23458 850-1154 limits assumed): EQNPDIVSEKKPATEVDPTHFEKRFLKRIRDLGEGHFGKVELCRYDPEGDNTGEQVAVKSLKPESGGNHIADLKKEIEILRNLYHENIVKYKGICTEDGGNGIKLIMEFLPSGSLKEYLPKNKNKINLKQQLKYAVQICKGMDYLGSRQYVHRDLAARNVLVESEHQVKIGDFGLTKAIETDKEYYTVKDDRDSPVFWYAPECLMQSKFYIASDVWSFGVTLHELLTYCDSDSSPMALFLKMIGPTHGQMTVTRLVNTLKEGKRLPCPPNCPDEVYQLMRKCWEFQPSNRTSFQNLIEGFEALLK

Take `CCc1cc(O)c(F)cc1-c1ccc2c(-c3nc4c([nH]3)CN(C(=O)N3CCN(C)CC3)C4)n[nH]c2c1` [MDI-235, (2-(6-(2-ethyl-5-fluoro-4-hydroxyphenyl)-1H-indazol-3-yl)-4,6-dihydropyrrolo[3,4-d]imidazol-5-(1H)-yl)(4-methylpiperazin-1-yl)ketone]: the IC50 against JAK1 stood at 0.0395 nM; against JAK2, 0.166 nM; at JAK3 it was 0.183 nM; against TYK2, 0.142 nM.

`CCc1cc(O)c(F)cc1-c1ccc2c(-c3nc4c([nH]3)CN(C(=O)N3CCN(CC)CC3)C4)n[nH]c2c1` [MDI-236, (2-(6-(2-ethyl-5-fluoro-4-hydroxyphenyl)-1H-indazol-3-yl)-4,6-dihydropyrrolo[3,4-d]imidazol-5-(1H)-yl)(4-ethylpiperazin-1-yl)ketone]: the 50% inhibitory concentration (IC50) against JAK1 amounted to 0.0403 nM; at JAK2, 0.329 nM; against JAK3 it was 0.141 nM; against TYK2 it was 0.0954 nM.

As to `CCc1cc(O)c(F)cc1-c1cnc2c(-c3nc4c([nH]3)CN(C(=O)C3CC3)C4)n[nH]c2c1` [MDI-237, cyclopropyl (2-(6-(2-ethyl-5-fluoro-4-hydroxyphenyl)-1H-pyrazolo[4,3-b]pyridine-3-yl)-4,6-dihydropyrrolo[3,4-d]imidazol-5(1H)-yl)ketone], the IC50 came to 0.758 nM at JAK1, 0.588 nM against JAK2, 1.39 nM on JAK3 and 9.68 nM against TYK2.

`CCc1cc(O)c(F)cc1-c1cc(C)c2c(-c3nc4c([nH]3)CN(C(=O)C3CC3)C4)n[nH]c2c1` [MDI-239, cyclopropyl (2-(6-(2-ethyl-5-fluoro-4-hydroxyphenyl)-4-methyl-1H-indazol-3-yl)-4,6-dihydropyrrolo[3,4-d]imidazol-5(1H)-yl)ketone]: the half-maximal inhibitory concentration (IC50) amounted to 1.15 nM against JAK1, 1.2 nM against JAK2, 4.94 nM at JAK3 and 19.2 nM against TYK2.

As for `CCc1cc(O)c(F)cc1-c1cc(C)c2c(-c3nc4c([nH]3)CN(C(=O)N3CC[C@H](O)C3)C4)n[nH]c2c1` [MDI-240, (S)-(2-(6-(2-ethyl-5-fluoro-4-hydroxyphenyl)-4-methyl-1H-indazol-3-yl)-4,6-dihydropyrrolo[3,4-d]imidazol-5(1H)-yl)(3-hydroxylpyrrolidin-1-yl)ketone], the IC50 against JAK1 came out at 0.45 nM; against JAK2, 0.842 nM; against JAK3 it was 2.02 nM; against TYK2 it was 5.34 nM.

Take `CCc1cc(O)c(F)cc1-c1cc2[nH]nc(-c3nc4c([nH]3)CN(C(=O)C3CC3)C4)c2cn1` [MDI-242, cyclopropyl(2-(6-(2-ethyl-5-fluoro-4-hydroxyphenyl)-1H-pyrazolo[4,3-c]pyridine-3-yl)-4,6-dihydropyrrolo[3,4-d]imidazol-5(1H)-yl)ketone]: the concentration for half-maximal inhibition (IC50) at JAK1 is 67.2 nM; against JAK2, 28.6 nM; at JAK3, 152 nM; against TYK2 it was 583 nM.

For the molecule `CCc1cc(O)c(F)cc1-c1ccc2c(-c3nc4c([nH]3)CN(C(=O)N3CC[C@@H](O)C3)C4)n[nH]c2c1` [MDI-243, (R)-(2-(6-(2-ethyl-5-fluoro-4-hydroxyphenyl)-1H-indazol-3-yl)-4,6-dihydropyrrolo[3,4-d]imidazol-5(1H)-yl)(3-hydroxylpyrrolidin-1-yl)ketone], the IC50 was 0.118 nM on JAK1, 0.499 nM against JAK2, 0.269 nM at JAK3 and 0.167 nM against TYK2.

On to `CCc1cc(O)c(F)cc1-c1ccc2c(-c3nc4c([nH]3)CN(C(=O)N3CC(O)C3)C4)n[nH]c2c1` [MDI-244, (2-(6-(2-ethyl-5-fluoro-4-hydroxyphenyl)-1H-indazol-3-yl)-4,6-dihydropyrrolo[3,4-d]imidazol-5(1H)-yl)(3-hydroxylazetidin-1-yl)ketone], for which the IC50 on JAK1 came to 0.248 nM; against JAK2, 0.915 nM; on JAK3, 0.55 nM; against TYK2 it was 1.31 nM.

As for `CCc1cc(O)c(F)cc1-c1ccc2c(-c3nc4c([nH]3)CN(C(=O)N3CCC(O)CC3)C4)n[nH]c2c1` [MDI-245, (2-(6-(2-ethyl-5-fluoro-4-hydroxyphenyl)-1H-indazol-3-yl)-4,6-dihydropyrrolo[3,4-d]imidazol-5(1H)-yl)(4-hydroxylpiperidin-1-yl)ketone], the IC50 at JAK1 was 0.178 nM; at JAK2, 0.648 nM; at JAK3, 0.306 nM; against TYK2 it was 0.365 nM.

`CCc1cc(O)c(F)cc1-c1ccc2c(-c3nc4c([nH]3)CN(C(=O)NC)C4)n[nH]c2c1` [MDI-246, 2-(6-(2-ethyl-5-fluoro-4-hydroxyphenyl)-1H-indazol-3-yl)-N-methyl-4,6-dihydropyrrolo[3,4-d]imidazol-5-(1H)-carboxamide]: the half-inhibitory concentration (IC50) worked out at 0.241 nM at JAK1, 0.973 nM against JAK2, 0.709 nM on JAK3 and 1.52 nM on TYK2.

In the case of `CCNC(=O)N1Cc2nc(-c3n[nH]c4cc(-c5cc(F)c(O)cc5CC)ccc34)[nH]c2C1` [MDI-247, 2-(6-(2-ethyl-5-fluoro-4-hydroxyphenyl)-1H-indazol-3-yl)-N-ethyl-4,6-dihydropyrrolo[3,4-d]imidazol-5-(1H)-carboxamide], the half-inhibitory concentration (IC50) against JAK1 was 0.557 nM; at JAK2 it was 1.88 nM; against JAK3, 1.3 nM; on TYK2, 2.35 nM.

`CCc1cc(O)c(F)cc1-c1ccc2c(-c3nc4c([nH]3)CN(C(=O)NCCO)C4)n[nH]c2c1` [MDI-248, 2-(6-(2-ethyl-5-fluoro-4-hydroxyphenyl)-1H-indazol-3-yl)-N-(2-hydroxylethyl)-4,6-dihydropyrrolo[3,4-d]imidazol-5(1H)-carboxamide]: the 50% inhibitory concentration (IC50) against JAK1 was 0.093 nM; on JAK2, 0.56 nM; on JAK3 it was 0.303 nM; against TYK2 it was 0.578 nM.

As for `CCc1cc(O)c(F)cc1-c1ccc2c(-c3nc4c([nH]3)CN(C(=O)N3CC(C#N)C3)C4)n[nH]c2c1` [MDI-249, 1-(2-(6-(2-ethyl-5-fluoro-4-hydroxyphenyl)-1H-indazol-3-yl)-1,4,5,6-tetrahydropyrrolo[3,4-d]imidazol-5-carbonyl)Azetidin-3-nitrile], the IC50 amounted to 0.307 nM at JAK1, 0.697 nM at JAK2, 0.398 nM on JAK3 and 1.93 nM at TYK2.

Turning to `CCc1cc(O)c(F)cc1-c1ccc2c(-c3nc4c([nH]3)CN(C(=O)N3CCC(C#N)C3)C4)n[nH]c2c1` (centres unmarked) [MDI-250, 1-(2-(6-(2-ethyl-5-fluoro-4-hydroxyphenyl)-1H-indazol-3-yl)-1,4,5,6-tetrahydropyrrolo[3,4-d]imidazol-5-carbonyl)pyrrolidin-3-nitrile], the concentration for half-maximal inhibition (IC50) on JAK1 was 0.395 nM; on JAK2, 0.974 nM; against JAK3 it was 0.497 nM; at TYK2, 0.993 nM.

Regarding `CCc1cc(O)c(F)cc1-c1ccc2c(-c3nc4c([nH]3)CN(C(=O)NC3CCOC3)C4)n[nH]c2c1` (centres unmarked) [MDI-251, 2-(6-(2-ethyl-5-fluoro-4-hydroxyphenyl)-1H-indazol-3-yl)-N-(tetrahydrofuran-3-yl)-4,6-dihydropyrrolo[3,4-d]imidazol-5(1H)-carboxamide], the IC50 against JAK1 came to 0.144 nM; at JAK2, 0.818 nM; against JAK3, 0.406 nM; against TYK2, 1.33 nM.

Turning to `CCc1cc(O)c(F)cc1-c1ccc2c(-c3nc4c([nH]3)CN(C(=O)OC)C4)n[nH]c2c1` [MDI-252, Methyl 2-(6-(2-ethyl-5-fluoro-4-hydroxyphenyl)-1H-indazol-3-yl)-4,6-dihydropyrrolo[3,4-d]imidazol-5(1H)-carboxylate], the IC50 came to 1.8 nM on JAK1, 2.6 nM against JAK2, 2.2 nM against JAK3 and 22 nM on TYK2.

In the case of `CCOC(=O)N1Cc2nc(-c3n[nH]c4cc(-c5cc(F)c(O)cc5CC)ccc34)[nH]c2C1` [MDI-253, Ethyl 2-(6-(2-ethyl-5-fluoro-4-hydroxyphenyl)-1H-indazol-3-yl)-4,6-dihydropyrrolo[3,4-d]imidazol-5(1H)-carboxylate], the IC50 at JAK1 amounted to 2.9 nM; at JAK2 it was 1.6 nM; on JAK3 it was 1.5 nM; on TYK2, 31 nM.

On to `CCc1cc(O)c(F)cc1-c1ccc2c(-c3nc4c([nH]3)CN(C(=O)CC#N)C4)n[nH]c2c1` [MDI-256, 3-(2-(6-(2-ethyl-5-fluoro-4-hydroxyphenyl)-1H-indazol-3-yl)-4,6-dihydropyrrolo[3,4-d]imidazol-5(1H)-yl)-3-oxypropionitrile], for which the IC50 amounted to 0.7 nM at JAK1, 3.06 nM at JAK2, 2.71 nM on JAK3 and 6.14 nM against TYK2.

Regarding `CCc1cc(O)c(F)cc1-c1ccc2c(-c3nc4c([nH]3)CN(C(=O)N(C)C)C4)n[nH]c2c1` [MDI-257, 2-(6-(2-ethyl-5-fluoro-4-hydroxyphenyl)-1H-indazol-3-yl)-N,N-dimethyl-4,6-dihydropyrrolo[3,4-d]imidazol-5(1H)-carboxamide], the IC50 was 0.185 nM on JAK1, 0.6 nM at JAK2, 0.381 nM against JAK3 and 0.684 nM on TYK2.

Turning to `CCc1cc(O)c(F)cc1-c1ccc2c(-c3nc4c([nH]3)CN(C(=O)NCCC#N)C4)n[nH]c2c1` [MDI-258, N-(2-cyanoethyl)-2-(6-(2-ethyl-5-fluoro-4-hydroxyphenyl)-1H-indazol-3-yl)-4,6-dihydropyrrolo[3,4-d]imidazole-5(1H)-carboxamide], the concentration for half-maximal inhibition (IC50) was found to be 0.939 nM on JAK1, 3.31 nM at JAK2, 2.36 nM at JAK3 and 6.27 nM against TYK2.
